Article PMC5218480 (PLoS ONE, 2017)

Test system: MV-4-11 cells
Test: Gene expression microarray analysis (Affymetrix PrimeView) and GSEA
Type: cell-based, human
Parameters: RFU PODN (11730768_x_at) / Fold change /veh PODN (11730768_x_at) / RFU LINC00158 (11744669_a_at) / Fold change /veh LINC00158 (11744669_a_at) / RFU DUSP10 (11751237_a_at) / Fold change /veh DUSP10 (11751237_a_at) / RFU ID3 (11757404_x_at) / Fold change /veh ID3 (11757404_x_at) / RFU PLEKHG5 (11737974_s_at) / Fold change /veh PLEKHG5 (11737974_s_at) / RFU LRRC4B (11730491_at) / Fold change /veh LRRC4B (11730491_at) / RFU GIMAP4 (11747438_a_at) / Fold change /veh GIMAP4 (11747438_a_at) / RFU KRT8 (11758183_x_at) / Fold change /veh KRT8 (11758183_x_at) / RFU CNN1 (11734310_a_at) / Fold change /veh CNN1 (11734310_a_at) / RFU VPS37D (11726825_at) / Fold change /veh VPS37D (11726825_at) / RFU C10orf10 (11716522_x_at) / Fold change /veh C10orf10 (11716522_x_at) / RFU KIR2DL2 /// KIR2DL4 /// KIR2DL5A /// KIR2DL5B /// KIR2DS1 /// KIR2DS2 /// KIR2DS3 /// KIR2DS4 /// KIR3DL3 /// KIR3DL3 /// KIR3DS1 (11738374_at) / Fold change /veh KIR2DL2 /// KIR2DL4 /// KIR2DL5A /// KIR2DL5B /// KIR2DS1 /// KIR2DS2 /// KIR2DS3 /// KIR2DS4 /// KIR3DL3 /// KIR3DL3 /// KIR3DS1 (11738374_at) / RFU C1QL1 (11718748_at) / Fold change /veh C1QL1 (11718748_at) / RFU TMPRSS4 (11747572_a_at) / Fold change /veh TMPRSS4 (11747572_a_at) / RFU HAMP (11756126_x_at) / Fold change /veh HAMP (11756126_x_at) / RFU RNFT2 (11725882_a_at) / Fold change /veh RNFT2 (11725882_a_at) / RFU NR4A2 (11747474_a_at) / Fold change /veh NR4A2 (11747474_a_at) / RFU ABCC12 (11746883_a_at) / Fold change /veh ABCC12 (11746883_a_at) / RFU TMEM136 (11760407_x_at) / Fold change /veh TMEM136 (11760407_x_at) / RFU CLDN22 /// WWC2 (11732394_at) / Fold change /veh CLDN22 /// WWC2 (11732394_at) / RFU HLA-DPB1 (11760878_x_at) / Fold change /veh HLA-DPB1 (11760878_x_at) / RFU SPINT1 (11716480_a_at) / Fold change /veh SPINT1 (11716480_a_at) / RFU GAP43 (11754022_s_at) / Fold change /veh GAP43 (11754022_s_at) / RFU A4GNT (11735810_at) / Fold change /veh A4GNT (11735810_at) / RFU PRB3 (11715151_x_at) / Fold change /veh PRB3 (11715151_x_at) / RFU TUBB4B (11761932_at) / Fold change /veh TUBB4B (11761932_at) / RFU CAPN14 (11732068_a_at) / Fold change /veh CAPN14 (11732068_a_at) / RFU TMCC2 (11721928_a_at) / Fold change /veh TMCC2 (11721928_a_at) / RFU IRGQ (11745062_a_at) / Fold change /veh IRGQ (11745062_a_at) / RFU FAM174B (11720279_a_at) / Fold change /veh FAM174B (11720279_a_at) / RFU TMPRSS4 (11748680_a_at) / Fold change /veh TMPRSS4 (11748680_a_at) / RFU FAM212B (11763350_a_at) / Fold change /veh FAM212B (11763350_a_at) / RFU PLEKHG5 (11743358_a_at) / Fold change /veh PLEKHG5 (11743358_a_at) / RFU ZSCAN30 (11745921_a_at) / Fold change /veh ZSCAN30 (11745921_a_at) / RFU CMKLR1 (11741424_a_at) / Fold change /veh CMKLR1 (11741424_a_at) / RFU LOC101060620 /// MAPK8IP1 (11723275_at) / Fold change /veh LOC101060620 /// MAPK8IP1 (11723275_at) / RFU SPTSSB (11747773_x_at) / Fold change /veh SPTSSB (11747773_x_at) / RFU PRSS12 (11739890_at) / Fold change /veh PRSS12 (11739890_at) / RFU BIN1 (11741810_x_at) / Fold change /veh BIN1 (11741810_x_at) / RFU WNT11 (11732464_a_at) / Fold change /veh WNT11 (11732464_a_at) / RFU C10orf10 (11716521_a_at) / Fold change /veh C10orf10 (11716521_a_at) / RFU C5orf56 (11738089_at) / Fold change /veh C5orf56 (11738089_at) / RFU CYB561 (11721691_x_at) / Fold change /veh CYB561 (11721691_x_at) / RFU ANKRD19P (11752326_a_at) / Fold change /veh ANKRD19P (11752326_a_at) / RFU OR2T12 /// OR2T33 /// OR2T8 (11738714_s_at) / Fold change /veh OR2T12 /// OR2T33 /// OR2T8 (11738714_s_at) / RFU VCAN (11748164_a_at) / Fold change /veh VCAN (11748164_a_at) / RFU JSRP1 (11732532_at) / Fold change /veh JSRP1 (11732532_at) / RFU KRTAP10-11 (11738290_x_at) / Fold change /veh KRTAP10-11 (11738290_x_at) / RFU MYO3A (11730013_a_at) / Fold change /veh MYO3A (11730013_a_at) / RFU EBF3 (11725865_a_at) / Fold change /veh EBF3 (11725865_a_at) / RFU CAMK2N1 (11719241_x_at) / Fold change /veh CAMK2N1 (11719241_x_at) / RFU C5orf56 (11738088_a_at) / Fold change /veh C5orf56 (11738088_a_at) / RFU OLFML3 (11715873_a_at) / Fold change /veh OLFML3 (11715873_a_at) / RFU LOC100653217 /// NTM (11731650_a_at) / Fold change /veh LOC100653217 /// NTM (11731650_a_at) / RFU MAPK11 (11762145_a_at) / Fold change /veh MAPK11 (11762145_a_at) / RFU FIZ1 (11724087_x_at) / Fold change /veh FIZ1 (11724087_x_at) / RFU OASL (11726364_x_at) / Fold change /veh OASL (11726364_x_at) / RFU SOX15 (11748057_x_at) / Fold change /veh SOX15 (11748057_x_at) / RFU CD79A (11719716_a_at) / Fold change /veh CD79A (11719716_a_at) / RFU HIST1H1D (11736915_at) / Fold change /veh HIST1H1D (11736915_at) / RFU CASKIN2 (11723855_a_at) / Fold change /veh CASKIN2 (11723855_a_at) / RFU LOC730098 (11760151_x_at) / Fold change /veh LOC730098 (11760151_x_at) / RFU OR4N2 (11742367_at) / Fold change /veh OR4N2 (11742367_at) / RFU PRRT2 (11749266_a_at) / Fold change /veh PRRT2 (11749266_a_at) / RFU SNX32 (11753110_a_at) / Fold change /veh SNX32 (11753110_a_at) / RFU CDHR5 (11726645_a_at) / Fold change /veh CDHR5 (11726645_a_at) / RFU RCAN1 (11760418_a_at) / Fold change /veh RCAN1 (11760418_a_at) / RFU FAM167A (11723789_a_at) / Fold change /veh FAM167A (11723789_a_at) / RFU FAM26E (11764081_at) / Fold change /veh FAM26E (11764081_at) / RFU ISYNA1 (11749810_s_at) / Fold change /veh ISYNA1 (11749810_s_at) / RFU ACY1 (11761880_at) / Fold change /veh ACY1 (11761880_at) / RFU 11764098_at / Fold change /veh 11764098_at / RFU SAMD14 (11745864_x_at) / Fold change /veh SAMD14 (11745864_x_at) / RFU NPB (11741838_a_at) / Fold change /veh NPB (11741838_a_at) / RFU TMPRSS6 (11731388_a_at) / Fold change /veh TMPRSS6 (11731388_a_at) / RFU KRTAP10-2 (11738614_at) / Fold change /veh KRTAP10-2 (11738614_at) / RFU ARHGAP8 /// PRR5-ARHGAP8 (11727945_x_at) / Fold change /veh ARHGAP8 /// PRR5-ARHGAP8 (11727945_x_at) / RFU KRTAP5-7 /// NADSYN1 (11734609_at) / Fold change /veh KRTAP5-7 /// NADSYN1 (11734609_at) / RFU RASL12 (11751679_a_at) / Fold change /veh RASL12 (11751679_a_at) / RFU CDKN2B (11736163_a_at) / Fold change /veh CDKN2B (11736163_a_at) / RFU PRF1 (11729649_at) / Fold change /veh PRF1 (11729649_at) / RFU, ZNF638 /// ZNF638-IT1 / Fold change vs veh, ZNF638 /// ZNF638-IT1 / RFU, PANK3 / Fold change vs veh, PANK3 / RFU, SH3YL1 / Fold change vs veh, SH3YL1 / RFU, ZEB2 / Fold change vs veh, ZEB2 / RFU, NRIP1 / Fold change vs veh, NRIP1 / RFU, PTTG1IP / Fold change vs veh, PTTG1IP / RFU, CAPN2 / Fold change vs veh, CAPN2 / RFU, MED14 / Fold change vs veh, MED14 / RFU, SNORA58 / Fold change vs veh, SNORA58 / RFU, C1orf63 / Fold change vs veh, C1orf63 / RFU, LRRFIP1 / Fold change vs veh, LRRFIP1 / RFU, NDUFAF7 / Fold change vs veh, NDUFAF7 / RFU, SLC12A2 / Fold change vs veh, SLC12A2 / RFU, IBTK / Fold change vs veh, IBTK / RFU, ESF1 / Fold change vs veh, ESF1 / Fold change vs veh, TMEM50B / RFU, TAOK1 / Fold change vs veh, TAOK1 / RFU, ACBD3 / Fold change vs veh, ACBD3 / RFU, TMA16 / Fold change vs veh, TMA16 / RFU, RWDD3 / Fold change vs veh, RWDD3 / RFU, BCAT1 / Fold change vs veh, BCAT1 / RFU, EDEM3 / Fold change vs veh, EDEM3 / RFU, TMEM33 / Fold change vs veh, TMEM33 / RFU, WDR75 / Fold change vs veh, WDR75 / RFU, AHCTF1 / Fold change vs veh, AHCTF1 / RFU, TFRC / Fold change vs veh, TFRC / RFU, ZDHHC17 / Fold change vs veh, ZDHHC17 / RFU, NOM1 / Fold change vs veh, NOM1 / RFU, ARL8B / Fold change vs veh, ARL8B / RFU, ZBTB11 / Fold change vs veh, ZBTB11 / RFU, TAMM41 / Fold change vs veh, TAMM41 / RFU, KIAA1704 /// LOC100996395 / Fold change vs veh, KIAA1704 /// LOC100996395 / RFU, ING1 / Fold change vs veh, ING1 / RFU, TRMT61B / Fold change vs veh, TRMT61B / RFU, FUBP3 / Fold change vs veh, FUBP3 / RFU, TP53 / Fold change vs veh, TP53 / RFU, TNKS2 / Fold change vs veh, TNKS2 / RFU, ZFP14 / Fold change vs veh, ZFP14 / RFU, ACTR2 / Fold change vs veh, ACTR2 / RFU, PPP3R1 / Fold change vs veh, PPP3R1 / RFU, PIK3R1 / Fold change vs veh, PIK3R1 / RFU, HNRNPA1 / Fold change vs veh, HNRNPA1 / RFU, RNF170 / Fold change vs veh, RNF170 / RFU, ZNF28 / Fold change vs veh, ZNF28 / RFU, RNGTT / Fold change vs veh, RNGTT / RFU, OGT / Fold change vs veh, OGT / RFU, BRD1 / Fold change vs veh, BRD1 / RFU, MARS / Fold change vs veh, MARS / RFU, ZNF655 / Fold change vs veh, ZNF655 / RFU, FAHD1 / Fold change vs veh, FAHD1 / RFU, BDP1 / Fold change vs veh, BDP1 / RFU, LRRCC1 / Fold change vs veh, LRRCC1 / RFU, ARID1A / Fold change vs veh, ARID1A / RFU, ZNF146 / Fold change vs veh, ZNF146 / RFU, ZNF330 / Fold change vs veh, ZNF330 / RFU, GPN3 / Fold change vs veh, GPN3 / RFU, C9orf123 / Fold change vs veh, C9orf123 / RFU, N4BP2L2 / Fold change vs veh, N4BP2L2 / RFU, ARFIP1 / Fold change vs veh, ARFIP1 / RFU, FAM179B / Fold change vs veh, FAM179B / RFU, BCL10 / Fold change vs veh, BCL10 / RFU, UHRF1BP1L / Fold change vs veh, UHRF1BP1L / RFU, BET1 / Fold change vs veh, BET1 / RFU, CNOT2 / Fold change vs veh, CNOT2 / RFU, ZNF268 / Fold change vs veh, ZNF268 / Fold change vs veh, ZNF507 / RFU, DGCR2 / Fold change vs veh, DGCR2 / RFU, WDSUB1 / Fold change vs veh, WDSUB1 / Fold change vs veh, HSP90B1 /// MIR3652 / RFU, ADSS / Fold change vs veh, ADSS / RFU, GK / Fold change vs veh, GK / RFU, ZNF148 / Fold change vs veh, ZNF148 / RFU, TAF9 / Fold change vs veh, TAF9 / RFU, SLC1A5 / Fold change vs veh, SLC1A5 / RFU, SLMO2 / Fold change vs veh, SLMO2 / RFU, ABCC4 / Fold change vs veh, ABCC4 / RFU, LOC101060439 /// RAP1B / Fold change vs veh, LOC101060439 /// RAP1B / RFU, RFX7 / Fold change vs veh, RFX7 / RFU, GTPBP10 / Fold change vs veh, GTPBP10 / RFU, CNEP1R1 / Fold change vs veh, CNEP1R1 / RFU, BIVM-ERCC5 /// ERCC5 / Fold change vs veh, BIVM-ERCC5 /// ERCC5 / RFU, ILF3 / Fold change vs veh, ILF3 / RFU 11762660_at / Fold change /veh 11762660_at / RFU VCAN (11757783_s_at) / Fold change /veh VCAN (11757783_s_at) / RFU DDX43 (11728927_at) / Fold change /veh DDX43 (11728927_at) / RFU KRT8 (11758188_x_at) / Fold change /veh KRT8 (11758188_x_at) / RFU NKD1 (11759106_at) / Fold change /veh NKD1 (11759106_at) / RFU SRD5A1 (11742802_a_at) / Fold change /veh SRD5A1 (11742802_a_at) / RFU TPSAB1 /// TPSB2 (11721975_s_at) / Fold change /veh TPSAB1 /// TPSB2 (11721975_s_at) / RFU GSTM3 (11746129_a_at) / Fold change /veh GSTM3 (11746129_a_at) / RFU IL23R (11737362_x_at) / Fold change /veh IL23R (11737362_x_at) / RFU TMEM51 (11727254_a_at) / Fold change /veh TMEM51 (11727254_a_at) / RFU PIWIL2 (11732686_x_at) / Fold change /veh PIWIL2 (11732686_x_at) / RFU ORM1 (11744905_x_at) / Fold change /veh ORM1 (11744905_x_at) / RFU CCDC152 (11743942_at) / Fold change /veh CCDC152 (11743942_at) / RFU ECM1 (11717891_a_at) / Fold change /veh ECM1 (11717891_a_at) / RFU IL23R (11748794_a_at) / Fold change /veh IL23R (11748794_a_at) / RFU TNFAIP8L3 (11732012_x_at) / Fold change /veh TNFAIP8L3 (11732012_x_at) / RFU MBOAT4 (11741988_at) / Fold change /veh MBOAT4 (11741988_at) / RFU 11764193_at / Fold change /veh 11764193_at / RFU TMEM53 (11763286_at) / Fold change /veh TMEM53 (11763286_at) / RFU MAGEB2 (11727129_at) / Fold change /veh MAGEB2 (11727129_at) / RFU TMEM200A (11744735_a_at) / Fold change /veh TMEM200A (11744735_a_at) / RFU CCDC152 (11751479_a_at) / Fold change /veh CCDC152 (11751479_a_at) / RFU FAM211A (11726209_a_at) / Fold change /veh FAM211A (11726209_a_at) / RFU RGS16 (11746705_a_at) / Fold change /veh RGS16 (11746705_a_at) / RFU VCAN (11755009_s_at) / Fold change /veh VCAN (11755009_s_at) / RFU RHOB (11743442_s_at) / Fold change /veh RHOB (11743442_s_at) / RFU RGS16 (11720943_a_at) / Fold change /veh RGS16 (11720943_a_at) / RFU RGS16 (11720944_at) / Fold change /veh RGS16 (11720944_at) / RFU, VPS4B / Fold change vs veh, VPS4B / RFU, CREB1 / Fold change vs veh, CREB1 / RFU, DNAJC13 / Fold change vs veh, DNAJC13 / RFU, GNAQ / Fold change vs veh, GNAQ / RFU, CDK5R1 / Fold change vs veh, CDK5R1 / RFU, ZRANB3 / Fold change vs veh, ZRANB3 / RFU, CUL4A / Fold change vs veh, CUL4A / RFU, CCNY / Fold change vs veh, CCNY / RFU, UFL1 / Fold change vs veh, UFL1 / RFU, COG3 / Fold change vs veh, COG3 / RFU, DIAPH2 / Fold change vs veh, DIAPH2 / RFU, SKA2 / Fold change vs veh, SKA2 / RFU, AFF3 / Fold change vs veh, AFF3 / RFU, LMF1 / Fold change vs veh, LMF1 / RFU, IPO11 / Fold change vs veh, IPO11 / RFU, DFFB / Fold change vs veh, DFFB / RFU, FOXP1 / Fold change vs veh, FOXP1 / RFU, CARD8 / Fold change vs veh, CARD8 / RFU, STRN3 / Fold change vs veh, STRN3 / RFU, ADK / Fold change vs veh, ADK / RFU, RASSF2 / Fold change vs veh, RASSF2 / RFU, WIPF1 / Fold change vs veh, WIPF1 / RFU, LARP1B / Fold change vs veh, LARP1B / RFU, RASA1 / Fold change vs veh, RASA1 / RFU, RB1 / Fold change vs veh, RB1 / RFU, PPFIA1 / Fold change vs veh, PPFIA1 / RFU, MAT2A / Fold change vs veh, MAT2A / RFU, CCT5 / Fold change vs veh, CCT5 / RFU, WDR92 / Fold change vs veh, WDR92 / RFU, CUX1 / Fold change vs veh, CUX1 / RFU, TTC7A / Fold change vs veh, TTC7A / RFU, TMEM135 / Fold change vs veh, TMEM135 / RFU, DEPTOR / Fold change vs veh, DEPTOR / RFU, CPM / Fold change vs veh, CPM / RFU, DNAJB6 / Fold change vs veh, DNAJB6 / RFU, CACNA2D3 / Fold change vs veh, CACNA2D3 / RFU, DTX4 / Fold change vs veh, DTX4 / RFU, TFCP2 / Fold change vs veh, TFCP2 / RFU, GMCL1 /// GMCL1P1 / Fold change vs veh, GMCL1 /// GMCL1P1 / RFU, AEBP2 / Fold change vs veh, AEBP2 / RFU, SNHG1 /// SNORD22 /// SNORD25 /// SNORD26 /// SNORD27 /// SNORD28 /// SNORD29 /// SNORD31 / Fold change vs veh, SNHG1 /// SNORD22 /// SNORD25 /// SNORD26 /// SNORD27 /// SNORD28 /// SNORD29 /// SNORD31 / Fold change (Aza/veh), C12orf56 (ProbeSet 11735607_a_at) / Fold change (ACY-1035/veh), C12orf56 (ProbeSet 11735607_a_at) / Fold change (Aza/veh), FGFR1OP (ProbeSet 11751329_s_at) / Fold change (ACY-1035/veh), FGFR1OP (ProbeSet 11751329_s_at) / Fold change (Aza/veh), VPS36 (ProbeSet 11739960_a_at) / Fold change (ACY-1035/veh), VPS36 (ProbeSet 11739960_a_at) / RFU SYPL1 (11715823_x_at) / Fold change /veh SYPL1 (11715823_x_at) / RFU IGFBP7 (11715501_s_at) / Fold change /veh IGFBP7 (11715501_s_at) / RFU REEP3 (11722064_at) / Fold change /veh REEP3 (11722064_at) / RFU IGLL1 (11728026_x_at) / Fold change /veh IGLL1 (11728026_x_at): dose or concentration left out as unconfirmed
Details: ProbeSet 11718569_a_at; LIST D

Nc1ccc(-c2cccs2)cc1NC(=O)c1ccc2c(c1)cc(C1CC1)n2CCN1CCOCC1 [ACY-1035]
RFU, WIPF1: 108.27 RFU
